The values that follow come from patent US4937246A, “PAF antagonist, 1,4-disubstituted piperazine compounds and production thereof” (priority 1987, dated 1990).

Data set [1] has as its system PAF-induced platelet aggregation. In words: Inhibitory action on PAF-induced platelet aggregation (turbidimetry, platelet rich plasma). Format: cell-based, rabbit (New Zealand white). The note with it: Oryctolagus cuniculus, Concentration of test compound: 3 × 10^-5 M. The protocol: Blood was collected from the hearts of conscious New Zealand white male rabbits weighing 2 to 3 Kg using citric acid as an anticoagulant (one volume part of 3.15% citric acid relative to 9 volume parts of the whole blood). The blood was subjected to a centrifuge at 800 rpm for 10 minutes to obtain platelet rich plasma (PRP). The remaining blood after collecting the PRP was subjected to a centrifuge at 3000 rpm for 10 minutes to obtain platelet poor plasma (PPP). PRP was diluted with PPP to adjust the number of platelets to about 500,000/μl. Platelet aggregation was examined by means of turbidimetry [Born, Nature, 194, 927-929 (1962)] with 8 channel aggregometer (NBS HEMA TRACER 6 Nikoh, Bio-science, Japan). More concretely, PRP (250μl) was kept warm (37° C.) for 3 minutes in a silicon-processed cuvette, to which was added a test sample (25μl) dissolved in a physiological saline or in 10mM dimethlsulfoxide followed by dilution with a physiological saline. Two minutes later, PAF (25μl, 3×10^-9 -1×10^-8 M), dissolved in a physiological saline, was added and then the maximum aggregation rate was determined. As the control, physiological saline without test sample was added to the cuvette, and the inhibitory rate thereon was determined.
Incidentally, Compound B means N,N'-bis(3,4,5-trimethoxybenzoyl)piperazine (a known compound).

Another data set has as its system PAF-induced hypotension. Kind of data set: Inhibitory action on PAF-induced hypotension (oral administration). Type of data set: in vivo, rat (SD (Jcl)). The settings on record: Rattus norvegicus; for inhibition in vivo at 3 mg/kg: 3 mg/kg oral; for inhibition in vivo at 10 mg/kg: 10 mg/kg oral; for inhibition in vivo at 30 mg/kg: 30 mg/kg oral. Here is the method: SD (Jcl) male rats of 6 to 8 week old were applied with cannulation into the femoral artery and vein under anesthesia with pentobarbital. The animals were fasted overnight, then subjected to the experiment. A tansducer (MPU-0.5-290-0-III, TOYO BALDWIN, Japan) was connected with the artery cannula, and blood pressure was continuously measured by means of polygraph (San-ei, Japan). When the blood pressure became constant, PAF (0.5 to 1.0 μg/kg, 250 μl/kg) dissolved in a physiological saline was injected through the venous cannula to lower the blood pressures by 30 to 45 mmHg. Thirty minutes later, PAF was injected again, and the average of lowered values of blood pressure (twice) was used as the control. After restoration of blood pressure to the initial level, test samples prepared by dissolving or suspending the drug in a physiological saline suspension of gum arabic (5%) were orally administered (5 ml/kg), then, after 1, 2 and 4 hours, PAF was injected. The rate of inhibition of lowering of blood pressure after administration of the test samples against the control was evaluated.

Read-outs that look alike come from different tables or passages of the source.

By inhibition is commonly meant the percentage by which the read-out fell short of the control. Lower therefore signals a response near the control. The inhibition in vivo is the relative decrease from the control value, in per cent. High values mean strong suppression, low ones little suppression.

In turn, `COc1cc2c(cc1OC)OCCC(C(=O)N1CCN(C(=O)c3cc(OC)c(OC)c(OC)c3)CC1)=C2` [compound 26] yielded an inhibition at 30 µM in data set [1] of 100%. Further, the inhibition in vivo at 3 mg/kg came to 74% in the data set with PAF-induced hypotension (after 1 hr.), 70% with PAF-induced hypotension (after 2 hrs.) and 44% with PAF-induced hypotension (after 4 hrs.). Further, the inhibition in vivo at 10 mg/kg in the data set on PAF-induced hypotension (after 1 hr.) was 100%; in the data set with PAF-induced hypotension (after 2 hrs.), 100%; in the data set with PAF-induced hypotension (after 4 hrs.), 87%. The inhibition in vivo at 30 mg/kg in the data set on PAF-induced hypotension (after 1 hr.) was determined as 98%; in the data set on PAF-induced hypotension (after 2 hrs.), 99%; with PAF-induced hypotension (after 4 hrs.), 100%.
Take `COc1ccc2c3c(oc2c1)CCC(C(=O)N1CCN(Cc2cc(OC)c(OC)c(OC)c2)CC1)=C3` [compound 18]: testing at 30 µM in data set [1] gave an inhibition of 84%.
Turning to `COc1ccc(C(=O)N2CCN(Cc3cc(OC)c(OC)c(OC)c3)CC2)cc1OC` [compound 4], the inhibition in vivo at 30 mg/kg with PAF-induced hypotension (after 1 hr.) was determined as 64%; in the data set on PAF-induced hypotension (after 2 hrs.), 32%; in the data set on PAF-induced hypotension (after 4 hrs.), 22%.
For `CCCCOc1c(OC)cc(C(=O)N2CCN(C(=O)c3cc(OC)c(OC)c(OC)c3)CC2)cc1[N+](=O)[O-]` [compound 5], in that order: 91%, 93% and 88%.
In the case of `COc1cc(CN2CCN(C(=O)c3cccnc3)CC2)cc(OC)c1OC` [compound 8], the inhibition at 30 µM in data set [1] was 63%.
On to `CCCOc1c(OC)cc(C(=O)N2CCN(Cc3cc(OC)c(OC)c(OC)c3)CC2)cc1[N+](=O)[O-]` [compound 3], for which, in data set [1], the inhibition at 30 µM was 100%. Also, the inhibition in vivo at 30 mg/kg in the data set with PAF-induced hypotension (after 1 hr.) stood at 86%; in the data set on PAF-induced hypotension (after 2 hrs.), 63%; with PAF-induced hypotension (after 4 hrs.), 26%.
`COc1cc(CN2CCN(C(=O)C3=Cc4cc5c(cc4CC3)OCO5)CC2)cc(OC)c1OC` [compound 6] registered an inhibition at 30 µM in data set [1] of 93%.
In data set [1], `COc1cc(CN2CCN(C(=O)c3cc(OC)c(OC)c(OC)c3)CC2)cc(OC)c1OC` [compound 2] returned an inhibition at 30 µM of 100%.
For `COc1ccc2c(c1)C=C(C(=O)N1CCN(C(=O)c3cc(OC)c(OC)c(OC)c3)CC1)CCO2` [compound 27], the values for the inhibition in vivo at 10 mg/kg in the data set on PAF-induced hypotension (after 1 hr.), in the data set on PAF-induced hypotension (after 2 hrs.) and in the data set on PAF-induced hypotension (after 4 hrs.) were 79%, 75% and 62%, respectively. Besides, the inhibition in vivo at 30 mg/kg with PAF-induced hypotension (after 1 hr.) was found to be 100%; in the data set with PAF-induced hypotension (after 2 hrs.) it was 100%; with PAF-induced hypotension (after 4 hrs.) it was 86%.
Turning to `COc1cc(CN2CCN(C(=O)c3cnc4ccccc4c3)CC2)cc(OC)c1OC` [compound 16], the inhibition at 30 µM in data set [1] is 58%.
Regarding `COc1cc(CN2CCN(C(=O)c3nc4ccccc4s3)CC2)cc(OC)c1OC` [compound 9], in data set [1], testing at 30 µM gave an inhibition of 52%.
In data set [1], `COc1cc(CN2CCN(C(=O)c3cc4ccccc4oc3=O)CC2)cc(OC)c1OC` [compound 12] registered an inhibition at 30 µM of 78%. Moreover, the results for the inhibition in vivo at 30 mg/kg in the data set on PAF-induced hypotension (after 1 hr.), in the data set on PAF-induced hypotension (after 2 hrs.) and in the data set on PAF-induced hypotension (after 4 hrs.) were 65%, 40% and 24%, respectively.
In data set [1], `COc1cc(CN2CCN(C(=O)C3CCc4sc5ccccc5c4C3O)CC2)cc(OC)c1OC` (centres unmarked) [compound 19] yielded an inhibition at 30 µM of 64%.
In the case of `COc1cc(CN2CCN(C(=O)c3cc4ccccc4o3)CC2)cc(OC)c1OC.Cl` [Working Example 7, 1-(2-benzofuranylcarbonyl)4-(3,4,5-trimethoxybenzyl)piperazine hydrochloride], in the data set on rats (single oral dose 1000 mg/kg, rats, one week observation), the survival entry is “all of the animals survived”.
With `COc1cc(CN2CCN(C(=O)c3ccc4c(c3)C(=O)C3(CC3)O4)CC2)cc(OC)c1OC` [compound 21], at 30 µM the inhibition in data set [1] was 100%.
In data set [1], `COc1cc(CN2CCN(C(=O)c3ccc4c(c3)C(O)C3(CC3)O4)CC2)cc(OC)c1OC` (centres unmarked) [compound 22] had an inhibition at 30 µM of 100%. Also, the results for the inhibition in vivo at 30 mg/kg in the data set on PAF-induced hypotension (after 1 hr.), in the data set with PAF-induced hypotension (after 2 hrs.) and in the data set with PAF-induced hypotension (after 4 hrs.) were 94%, 80% and 2%, respectively.
With `COc1ccc2c(c1)OCCC(C(=O)N1CCN(C(=O)c3cc(OC)c(OC)c(OC)c3)CC1)=C2` [compound 28], the inhibition in vivo at 30 mg/kg with PAF-induced hypotension (after 1 hr.) is 92%; in the data set on PAF-induced hypotension (after 2 hrs.), 91%; in the data set on PAF-induced hypotension (after 4 hrs.), 92%.
In data set [1], `COc1cc2c(cc1OC)OCCC(C(=O)N1CCN(Cc3cc(OC)c(OC)c(OC)c3)CC1)=C2` [compound 25] came in with an inhibition at 30 µM of 100%. Further, the inhibition in vivo at 30 mg/kg with PAF-induced hypotension (after 1 hr.) is 100%; with PAF-induced hypotension (after 2 hrs.), 97%; in the data set on PAF-induced hypotension (after 4 hrs.), 70%.
Turning to `COc1cc2c(cc1OC)OCCC(C(=O)N1CCN(C(=S)c3cc(OC)c(OC)c(OC)c3)CC1)=C2` [compound 29], the figures for the inhibition in vivo at 3 mg/kg with PAF-induced hypotension (after 1 hr.), in the data set on PAF-induced hypotension (after 2 hrs.) and with PAF-induced hypotension (after 4 hrs.) were 67%, 71% and 61%, respectively. Besides, the inhibition in vivo at 30 mg/kg with PAF-induced hypotension (after 1 hr.), in the data set with PAF-induced hypotension (after 2 hrs.) and in the data set with PAF-induced hypotension (after 4 hrs.) was 100% in each case.
Compound `COc1cc2c(cc1OC)OCCC(C(=O)N1CCN(C(=O)c3cc(OC)c(OC)c(OC)c3)CC1)C2` (centres unmarked) [compound 33] showed an inhibition at 30 µM in data set [1] of 47%. The inhibition in vivo at 30 mg/kg was found to be 99% in the data set with PAF-induced hypotension (after 1 hr.), 99% in the data set on PAF-induced hypotension (after 2 hrs.) and 79% in the data set on PAF-induced hypotension (after 4 hrs.).
Consider `COc1cc2c(cc1OC)SCCC(C(=O)N1CCN(Cc3cc(OC)c(OC)c(OC)c3)CC1)=C2` [compound 23], for which the inhibition at 30 µM in data set [1] was 74%. Also, the inhibition in vivo at 30 mg/kg was determined as 94% in the data set on PAF-induced hypotension (after 1 hr.), 94% with PAF-induced hypotension (after 2 hrs.) and 67% with PAF-induced hypotension (after 4 hrs.).
In data set [1], `COc1cc2c(cc1OC)SCCC(C(=O)N1CCN(C(=O)c3cc(OC)c(OC)c(OC)c3)CC1)=C2` [compound 24] displayed an inhibition at 30 µM of 100%. The inhibition in vivo at 30 mg/kg was determined as 94% with PAF-induced hypotension (after 1 hr.), 91% with PAF-induced hypotension (after 2 hrs.) and 78% in the data set on PAF-induced hypotension (after 4 hrs.).
As for `COc1cc(CN2CCN(C(=O)c3cc4ccccc4o3)CC2)cc(OC)c1OC` [compound 7], the inhibition at 30 µM in data set [1] amounted to 74%. Also, the figures for the inhibition in vivo at 30 mg/kg with PAF-induced hypotension (after 1 hr.), in the data set on PAF-induced hypotension (after 2 hrs.) and with PAF-induced hypotension (after 4 hrs.) were 4%, 15% and 25%, respectively.
Compound `COc1cc(CN2CCN(C(=O)c3ccc4c(c3)OCCO4)CC2)cc(OC)c1OC` [compound 17] registered an inhibition at 30 µM in data set [1] of 88%.
Same read-out and setting: the figure for `COc1cc(CN2CCN(C(=O)c3ccsc3)CC2)cc(OC)c1OC` [compound 13] is 46%.
In the case of `COc1cc(C(=O)N2CCN(C(=O)c3cc(OC)c(OC)c(OC)c3)CC2)cc(OC)c1OC` [Compound B, N,N'-bis(3,4,5-trimethoxybenzoyl)piperazine, reference compound], in the data set with rats (oral, rats, single dose), the “LD50 (estimated)” value is recorded as approximately 1000 mg/kg. The survival entry in the data set with rats (rat, in vivo, po, 1000 mg/kg) is on record as “all of the animals survived”. The compound also registered an inhibition at 30 µM in data set [1] of 100%. Further, the inhibition in vivo at 30 mg/kg with PAF-induced hypotension (after 1 hr.) was 86%; in the data set on PAF-induced hypotension (after 2 hrs.) it was 63%; in the data set on PAF-induced hypotension (after 4 hrs.) it was 26%.
